Our source for the IC50 values is patent publication US6143715A, “Hepatitis C inhibitor peptide analogues” (priority 1998, dated 2000).

Starred links: 1 amine or outer side, 2 acyl side, 3 side chain; linkers in the order of their positions; H or OH if unused. Non-standard residues stand in square brackets, D forms with d. Residues, ends and D or L forms follow the SMILES beside them. ξ: configuration not given here. *: point of attachment. Tetrahydroisoquinolin(2-yl) = c1ccc2c(c1)CCN(*)C2; NH(1S-phenylpropyl) = CC[C@H](N*)c1ccccc1; NH(1S-phenylethyl) = C[C@H](N*)c1ccccc1; X21 = CCCN(N*)C(=O)CCc1nc(-c2ccccn2)no1; X11 = CCCN(N*)C(=O)[C@H](O)c1ccccc1; X20 = O=C(N(CC(F)(F)F)N[*:1])[*:2]; X1 = CCCC(N*)C(=O)C(F)(F)C(F)(F)F; X15 = CCCC(N[*:1])C(=O)C(=O)[*:2]; Hyp = O=C(O)[C@@H]1C[C@@H](O)CN1; NHPiperonyl = c1cc2c(cc1CN*)OCO2; azaNva = CCCN(N[*:1])C(=O)[*:2]; X18 = CCCN(N*)C(=S)NCc1ccccc1; NMe(benzyl) = CN(Cc1ccccc1)*; Suc = O=C(CCC(=O)[*:2])[*:1]; Nva = CCC[C@H](N)C(=O)O; X14 = c1ccc2c(c1)CCN2*; X16 = CCCCN(N*)C(N)=O; NHBn = c1ccc(CN*)cc1; X13 = CCCN(N*)C(N)=O; X19 = CCCN(N*)C(C)=O; ξNva = CCCC(N)C(=O)O; Bn = c1ccc(C*)cc1

For one assay, the target named is T1, HCV NS3 protease type 1b/NS4A cofactor peptide (Hepatitis C virus genotype 1b, UniProt P26663).
T1 construct: recombinant HCV NS3 protease (amino acid 1027 to 1206) was cloned; made in house; host or cells: E. coli BL21(DE3)pLysS
T1 sequence (P26663 1027-1206, other chains not shown): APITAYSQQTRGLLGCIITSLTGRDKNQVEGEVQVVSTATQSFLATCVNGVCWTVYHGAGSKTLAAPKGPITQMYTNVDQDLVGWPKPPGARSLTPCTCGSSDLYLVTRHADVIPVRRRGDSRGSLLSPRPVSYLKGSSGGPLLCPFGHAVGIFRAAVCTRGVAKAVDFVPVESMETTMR
Nature of the assay: biochemical. Also on record: species or system hepatitis C virus (HCV) genotype 1b.
Conditions: not given
An excerpt: a) Cloning, expression and purification of the recombinant HCV NS3 protease type lb
Serum from an HCV-infected patient was obtained through an external collaboration (Bernard Willems MD, Hopital St-Luc, Montreal, Canada and Dr. Donald Murphy, Laboratoire de Sante Publique du Quebec, Ste-Anne de Bellevue, Canada). An engineered full-length cDNA template of the HCV genome was constructed from DNA fragments obtained by reverse transcription-PCR (RT-PCR) of serum RNA and using specific primers selected on the basis of homology between other genotype lb strains. […] A DNA fragment encoding the polyprotein precursor (NS3/NS4A/NS4B/NS5A/NS5B) was generated by PCR and introduced into eucaryotic expression vectors.
The NS3 protease expression in E. coli BL21(DE3)pLysS was induced by incubation with 1 mM IPTG for 3 h at 22° C. […] The cells were resuspended in lysis buffer (3.0 mL/g) consisting of 25 mM sodium phosphate, pH 7.5, 10% glycerol (v/v), 1 mM EDTA, 0.01% NP-40 and stored at -80° C. Cells were thawed and homogenized following the addition of 5 mM DTT. Magnesium chloride and DNase were then added to the homogenate at final concentrations of 20 mM and 20 μg/mL respectively. After a 25 min incubation at 4° C., the homogenate was sonicated and centrifuged at 15000× g for 30 min at 4° C. The pH of the supernatant was then adjusted to 6.5 using a 1M sodium phosphate solution.
Briefly, the supernatant from the bacterial extract was loaded on a SP HiTrap column (Pharmacia) previously equilibrated at a flow rate of 2 mL/min in buffer A (50 mM sodium phosphate, pH 6.5, 10% glycerol, 1 mM EDTA, 5 mM DTT, 0.01% NP-40). The column was then washed with buffer A containing 0.15 M NaCl and the protease eluted by applying 10 column volumes of a linear 0.15 to 0.3 M NaCl gradient. NS3 protease-containing fractions were pooled and diluted to a final NaCl concentration of 0.1 M. The enzyme was further purified on a HiTrap Heparin column (Pharmacia) equilibrated in buffer B (25 mM sodium phosphate, pH 7.5, 10% glycerol, 5 mM DTT, 0.01% NP-40). The sample was loaded at a flow rate of 3 mL/min. The column was then washed with buffer B containing 0.15 M NaCl at a flow rate of 1.5 mL/min. Two step washes were performed in the presence of buffer B containing 0.3 or 1M NaCl. […] Finally, the NS3 protease-containing fractions were applied on a Superdex 75 HiLoad 16/60 column (Pharmacia) equilibrated in buffer B containing 0.3 M NaCl.
The enzyme was stored at -80° C. and was thawed on ice and diluted just prior to use.
Recombinant HCV NS3 Protease/NS4A Cofactor Peptide Radiometric Assay
The enzyme was stored at -80° C., thawed on ice and diluted just prior to use in the assay buffer containing the NS4A cofactor peptide.
The substrate used for the NS3 protease/[…] cofactor peptide radiometric assay, DDIVPC-SMSYTW, is cleaved between the cysteine and the serine residues by the enzyme. The sequence DDIVPC-SMSYTW corresponds to the NS5A/NS5B natural cleavage site in which the cysteine residue in […] has been substituted for a proline. […] (molar ratio enzyme: cofactor 1:100) in the absence or presence of inhibitors. The separation of substrate from products is performed by adding avidin-coated agarose beads to the assay mixture followed by filtration.
Assay buffer: 50 mM Tris HCl, pH 7.5, 30% (w/v) glycerol, 1 mg/mL BSA, 1 mM TCEP (TCEP added just prior to use from a 1 M stock solution in water)
Substrate: […], […] final concentration (from a 2 mM stock solution in DMSO stored at -20° C. to avoid oxidation).
For the compound `CCCC(NC(=O)[C@@H]1C[C@@H](OCc2ccccc2)CN1C(=O)[C@@H](NC(=O)[C@@H](NC(=O)[C@@H](CCC(=O)O)NC(=O)[C@H](CC(=O)O)NC(C)=O)[C@@H](C)CC)C(C)C)C(=O)C(F)(F)C(F)(F)F` (stereo partly shown) [Compound 102] (Ac-D[dE]IV[Hyp](Bn)-X1), the midpoint of inhibition, the IC50, lay at 0.21 µM.
On the same count and under the same terms, in the case of `CCCC(NC(=O)[C@@H]1C[C@@H](OCc2ccccc2)CN1C(=O)[C@@H](NC(=O)[C@@H](NC(=O)[C@@H](CCC(=O)O)NC(=O)[C@H](CC(=O)O)NC(C)=O)[C@@H](C)CC)C(C)C)C(=O)C(=O)NCc1ccccc1` (stereo partly shown) [Compound 103] (Ac-D[dE]IV[Hyp](Bn)[X15]-NHBn) it was 0.023 µM; in that of `CCCC(NC(=O)[C@@H]1C[C@@H](OCc2ccccc2)CN1C(=O)[C@@H](NC(=O)[C@@H](NC(=O)[C@@H](CCC(=O)O)NC(=O)[C@H](CC(=O)O)NC(C)=O)[C@@H](C)CC)C(C)C)C(N)=O` (stereo partly shown) [Compound 105] (Ac-D[dE]IV[Hyp](Bn)[ξNva]-NH2), 54 µM.
Consider `CCC[C@H](NC(=O)[C@@H]1C[C@@H](OCc2ccccc2)CN1C(=O)[C@@H](NC(=O)[C@@H](NC(=O)[C@@H](CCC(=O)O)NC(=O)[C@H](CC(=O)O)NC(C)=O)[C@@H](C)CC)C(C)C)C(=O)NCc1ccccc1` [Compound 107] (Ac-D[dE]IV[Hyp](Bn)[Nva]-NHBn), for which half-maximal inhibition (IC50) was put at 3 µM.
In the case of `CCCC(NC(=O)[C@@H]1C[C@@H](OCc2ccccc2)CN1C(=O)[C@@H](NC(=O)[C@@H](NC(=O)[C@@H](CCC(=O)O)NC(=O)[C@H](CC(=O)O)NC(C)=O)[C@@H](C)CC)C(C)C)C(=O)N1CCc2ccccc2C1` (stereo partly shown) [Compound 111] (Ac-D[dE]IV[Hyp](Bn)[ξNva]-{Tetrahydroisoquinolin(2-yl)}), half-maximal inhibition (IC50) was put at 20 µM.
For the compound `CCCC(NC(=O)[C@@H]1C[C@@H](OCc2ccccc2)CN1C(=O)[C@@H](NC(=O)[C@@H](NC(C)=O)C1CCCCC1)C(C)C)C(=O)C(=O)NCc1ccncc1` (stereo partly shown) [Compound 116], the IC50 (usually the midpoint of a concentration-inhibition curve) was 25 µM.
Compound `CCCN(NC(=O)[C@@H]1C[C@@H](OCc2ccccc2)CN1C(=O)[C@@H](NC(=O)[C@@H](NC(=O)[C@@H](CCC(=O)O)NC(=O)[C@H](CC(=O)O)NC(C)=O)[C@@H](C)CC)C(C)C)C(=O)NCc1ccccc1` [Compound 203] (Ac-D[dE]IV[Hyp](Bn)[azaNva]-NHBn) yielded an IC50 of 0.59 µM.
`CCCN(NC(=O)[C@@H]1C[C@@H](OCc2ccccc2)CN1C(=O)[C@@H](NC(=O)[C@@H](NC(=O)[C@@H](CCC(=O)O)NC(=O)[C@H](CC(=O)O)NC(C)=O)[C@@H](C)CC)C(C)C)C(=O)NCC(=O)O` [Compound 207] (Ac-D[dE]IV[Hyp](Bn)[azaNva]G-OH) displayed a half-maximal inhibitory concentration (IC50) of 3.75 µM.
On the same count and under the same terms, with `CCCN(NC(=O)[C@@H]1C[C@@H](OCc2ccccc2)CN1C(=O)[C@@H](NC(=O)[C@@H](NC(=O)[C@@H](CCC(=O)O)NC(=O)[C@H](CC(=O)O)NC(C)=O)[C@@H](C)CC)C(C)C)C(C)=O` [Compound 208] (Ac-D[dE]IV[Hyp](Bn)-X19) the figure was 14.5 µM; with `CCCN(NC(=O)[C@@H]1C[C@@H](OCc2ccccc2)CN1C(=O)[C@@H](NC(=O)[C@@H](NC(=O)[C@@H](CCC(=O)O)NC(=O)[C@H](CC(=O)O)NC(C)=O)[C@@H](C)CC)C(C)C)C(N)=O` [Compound 209] (Ac-D[dE]IV[Hyp](Bn)-X13), 20.5 µM; with `CCCCN(NC(=O)[C@@H]1C[C@@H](OCc2ccccc2)CN1C(=O)[C@@H](NC(=O)[C@@H](NC(=O)[C@@H](CCC(=O)O)NC(=O)[C@H](CC(=O)O)NC(C)=O)[C@@H](C)CC)C(C)C)C(N)=O` [Compound 211] (Ac-D[dE]IV[Hyp](Bn)-X16), 47 µM.
As to `CCCN(NC(=O)[C@@H]1C[C@@H](OCc2ccccc2)CN1C(=O)[C@@H](NC(=O)[C@@H](NC(=O)[C@@H](CCC(=O)O)NC(=O)[C@H](CC(=O)O)NC(C)=O)[C@@H](C)CC)C(C)C)C(=O)N[C@@H](CC)c1ccccc1` [Compound 214] (Ac-D[dE]IV[Hyp](Bn)[azaNva]-{NH(1S-phenylpropyl)}), 0.44 µM corresponded to half-maximal inhibition (IC50).
`CCCN(NC(=O)[C@@H]1C[C@@H](OCc2ccccc2)CN1C(=O)[C@@H](NC(=O)[C@@H](NC(=O)[C@@H](CCC(=O)O)NC(=O)[C@H](CC(=O)O)NC(C)=O)[C@@H](C)CC)C(C)C)C(=O)[C@H](O)c1ccccc1` [Compound 216] (Ac-D[dE]IV[Hyp](Bn)-X11) displayed an IC50 of 9.6 µM.
Consider `CCCN(NC(=O)[C@@H]1CCCN1C(=O)[C@@H](NC(=O)[C@@H](NC(=O)[C@@H](CC(=O)O)NC(=O)CCC(=O)O)[C@@H](C)CC)C(C)C)C(=O)N[C@@H](C)c1ccccc1` [Compound 220] (Suc-[dD]IVP[azaNva]-{NH(1S-phenylethyl)}), for which half-maximal inhibition (IC50) required 6.9 µM.
On the same count and under the same terms, in the case of `CCCN(NC(=O)[C@@H]1C[C@@H](OCc2ccccc2)CN1C(=O)[C@@H](NC(=O)[C@@H](NC(=O)[C@@H](CCC(=O)O)NC(=O)[C@H](CC(=O)O)NC(C)=O)[C@@H](C)CC)C(C)C)C(=O)N(C)Cc1ccccc1` [Compound 223] (Ac-D[dE]IV[Hyp](Bn)[azaNva]-{NMe(benzyl)}) it was 11 µM.
In turn, `CCCN(NC(=O)[C@@H]1C[C@@H](OCc2ccccc2)CN1C(=O)[C@@H](NC(=O)[C@@H](NC(=O)[C@@H](CCC(=O)O)NC(=O)[C@H](CC(=O)O)NC(C)=O)[C@@H](C)CC)C(C)C)C(=S)NCc1ccccc1` [Compound 224] (Ac-D[dE]IV[Hyp](Bn)-X18) registered an IC50 of 5 µM.
Turning to `CCCN(NC(=O)[C@@H]1C[C@@H](OCc2ccccc2)CN1C(=O)[C@@H](NC(=O)[C@@H](NC(=O)[C@@H](CCC(=O)O)NC(=O)[C@H](CC(=O)O)NC(C)=O)[C@@H](C)CC)C(C)C)C(=O)N1CCc2ccccc21` [Compound 226] (Ac-D[dE]IV[Hyp](Bn)[azaNva]-X14), the IC50 came to 6.3 µM.
Compound `CCCN(NC(=O)[C@@H]1C[C@@H](OCc2ccccc2)CN1C(=O)[C@@H](NC(=O)[C@@H](NC(C)=O)C1CCCCC1)C(C)C)C(=O)C(=O)O` [Compound 227] returned an IC50 of 39.5 µM.
The compound `CC[C@H](C)[C@H](NC(=O)[C@@H](CCC(=O)O)NC(=O)[C@H](CC(=O)O)NC(C)=O)C(=O)N[C@H](C(=O)N1C[C@H](OCc2ccccc2)C[C@H]1C(=O)NN(CC(F)(F)F)C(=O)N[C@@H](C)c1ccccc1)C(C)C` [Compound 228] (Ac-D[dE]IV[Hyp](Bn)[X20]-{NH(1S-phenylethyl)}) yielded an IC50 of 0.63 µM.
On the same count and under the same terms, in the case of `CCCN(NC(=O)[C@@H]1C[C@@H](OCc2ccccc2)CN1C(=O)[C@@H](NC(=O)[C@@H](NC(=O)[C@@H](CCC(=O)O)NC(=O)[C@H](CC(=O)O)NC(C)=O)[C@@H](C)CC)C(C)C)C(=O)NCc1ccc2c(c1)OCO2` [Compound 231] (Ac-D[dE]IV[Hyp](Bn)[azaNva]-NHPiperonyl) it was 0.5 µM.
Same read-out and setting: with `CCCN(NC(=O)[C@@H]1C[C@@H](OCc2ccccc2)CN1C(=O)[C@@H](NC(=O)[C@@H](NC(=O)[C@@H](CCC(=O)O)NC(=O)[C@H](CC(=O)O)NC(C)=O)[C@@H](C)CC)C(C)C)C(=O)CCc1nc(-c2ccccn2)no1` [Compound 232] (Ac-D[dE]IV[Hyp](Bn)-X21) the figure was 3.2 µM.

The same assay, now with this note: IC50: concentration required to obtain 50% inhibition in the NS3 protease/NS4A cofactor peptide radiometric assay, enzyme:cofactor 1:100, 40 min at 23° C.
Take `CCCC(NC(=O)[C@@H]1C[C@@H](OCc2ccccc2)CN1C(=O)[C@@H](NC(=O)[C@@H](NC(=O)[C@@H](CCC(=O)O)NC(=O)[C@H](CC(=O)O)NC(C)=O)[C@@H](C)CC)C(C)C)P(=O)(Oc1ccccc1)Oc1ccccc1` (single isomer, unassigned) [Compound 302]: the IC50 is 26 µM.
